# According to US20220257704A1, “COMBINATION OF CHEMOTHERAPY WITH RECOMBINANT S. ROLFSII LECTIN” (Unichem Laboratories Ltd, priority 2018, published 2022):
# pIC50: −log10 of the molar value. Where two headings read alike, the source gives them in different places.
# Legend:
# Experiment in all cases: MTT cytotoxicity assay, 48 h, alone and in combination (IC50 and Combination Index)
# Type in all cases: cell-based
# KB cell line = tested on: KB cell line
# Method: A study was performed to determine the effect of the concentration of the recombinant lectin represented by SEQ ID NO: 1 on the IC50 of5-FU for cytotoxicity in KB cells.
# Similarly another study was performed for Cisplatin in combination with the recombinant lectin of SEQ ID NO: 1.
# Similarly another set of cells were treated with Cisplatin(0.1 μM to 1.5 μM)in combination with SEQ ID NO: 1(5.0 μg/mL-90 μg/mL).
# HT-29 cell line = settings: Homo sapiens
# PANC-1 cell line = settings: Homo sapiens
# Method: The cytotoxic effect on each combination was determined by MTT assay.
# (§1) Combination Index (CI) values were determined for each drug concentration combination. The CI values were calculated based on the IC50 values using the formula as given in below.
# MDA-MB-231 cell line = tested on: MDA-MB-231 cell line
# Method: (§2) The cell were kept in contact with the recombinant lectin of SEQ ID NO: 1 and the chemotherapy agent for 48 h and the cytotoxic effect (percentage cytotoxicity) was measured. The cytotoxic effect was determined by well-known colorimetric MTT assay (Mossman, T. 1983 Rapid colorimetric assay for cellular growth and survival: application to proliferation and cytotoxicity assays Journal of Immunological Methods, volume 65, pages 55-63) for assessing cell metabolic activity.
# (§3) Based on percentage cytotoxicity data, IC50 values were determined using the software GraphPad Prism version 4.01.
# as §1
# A study was performed to determine the effect of the concentration of the recombinant lectin represented by SEQ ID NO: 1 on the IC50 of Paclitaxel for cytotoxicity in MDA-MB-231 cells. Conversely the effect of the concentration of Paclitaxel on the IC50 of the recombinant lectin represented by SEQ ID NO: 1.
# Similarly another study was performed for Carboplatin in combination with the recombinant lectin of SEQ ID NO: 1.
# In a further study, MDA-MB-231 cells were treated with Paclitaxel (0.001 nM-10 nM) in combination with SEQ ID NO: 1(2.5 μg/mL-80 μg/mL) for 48 h. Similarly another set of cells were treated with Carboplatin (10 μM-1000 μM) in combination with SEQ ID NO: 1 (2.5 μg/mL-80 μg/mL).
# T24 cell line = settings: for Conc. of other therapeutic agents showing synergistic effect: paired with SEQ ID NO: 1 conc.
# Method: as §2, §3, §1
# A study was performed to determine the effect of the concentration of the recombinant lectin represented by SEQ ID NO: 1 on the IC50 of Cisplatin for cytotoxicity in T24 cells. Conversely the effect of the concentration of Cisplatin on the IC50 of the recombinant lectin represented by SEQ ID NO: 1.
# Similarly another study was performed for Gemcitabine in combination with the recombinant lectin of SEQ ID NO: 1.
# This was performed using the same techniques as in Example 1-1.
# In a further study, T24 cells were treated with Cisplatin (1 μM-500 μM) in combination with SEQ ID NO: 1(2.5 μg/mL-80 μg/mL) for 48 h. Similarly another set of cells were treated with Gemcitabine (1 μM-300 μM) in combination with SEQ ID NO: 1 (2.5 μg/mL-80 μg/mL). Combination Index values were determined for each drug combination and resultant antagonistic, additive or synergistic effect was determined, as described in Example 1-2.
# PA-1 cell line = tested on: PA-1 cell line
# Method: In a further study, PA-1 cells were treated with Cisplatin(0.01 μM-5 μM) in combination with SEQ ID NO: 1(1 μg/mL-20 μg/mL) for 48 h. Similarly another set of cells were treated with Paclitaxel (0.01 nM-5 nM) in combination with SEQ ID NO: 1 (1 μg/mL-20 μg/mL).
# [1] = SEQ ID NO: 1 at 0 μg/mL, read-out: IC50 of Cisplatin
# [2] = SEQ ID NO: 1 at 5 μg/mL, read-out: IC50 of Cisplatin
# [3] = SEQ ID NO: 1 at 10 μg/mL, read-out: IC50 of Cisplatin
# [4] = SEQ ID NO: 1 at 20 μg/mL, read-out: IC50 of Cisplatin
# [5] = SEQ ID NO: 1 at 40 μg/mL, read-out: IC50 of Cisplatin
# [6] = SEQ ID NO: 1 at […], read-out: IC50 of Cisplatin
smiles,measurement,setting,value
"O=c1[nH]cc(F)c(=O)[nH]1 [5-FU, 5-Fluorouracil, reference compound]",Conc. of other therapeutic agents showing synergistic effect,"KB cell line; 5-FU with SEQ ID NO: 1, paired with SEQ ID NO: 1 conc.",0.01 to 5 µM
same,pIC50,"KB cell line; Homo sapiens, KB, read-out: IC50 of 5-FU, SEQ ID NO: 1 at 0 μg/mL",7.82
same,pIC50,"KB cell line; Homo sapiens, KB, read-out: IC50 of 5-FU, SEQ ID NO: 1 at 5 μg/mL",10.00
same,pIC50,"KB cell line; Homo sapiens, KB, read-out: IC50 of 5-FU, SEQ ID NO: 1 at 10 μg/mL",11.27
same,pIC50,"KB cell line; Homo sapiens, KB, read-out: IC50 of 5-FU, SEQ ID NO: 1 at 20 μg/mL",10.87
same,pIC50,"KB cell line; Homo sapiens, KB, read-out: IC50 of 5-FU, SEQ ID NO: 1 at 30 μg/mL",11.92
same,pIC50,"HT-29 cell line; HT-29, read-out: IC50 of 5-FU, SEQ ID NO: 1 at 0 μg/mL",3.86
same,pIC50,"HT-29 cell line; HT-29, read-out: IC50 of 5-FU, SEQ ID NO: 1 at 1 μg/mL",3.76
same,pIC50,"HT-29 cell line; HT-29, read-out: IC50 of 5-FU, SEQ ID NO: 1 at 5 μg/mL",4.59
same,pIC50,"HT-29 cell line; HT-29, read-out: IC50 of 5-FU, SEQ ID NO: 1 at 10 μg/mL",5.35
same,pIC50,"HT-29 cell line; HT-29, read-out: IC50 of 5-FU, SEQ ID NO: 1 at 20 μg/mL",6.55
same,pIC50,"HT-29 cell line; HT-29, read-out: IC50 of 5-FU, SEQ ID NO: 1 at 40 μg/mL",5.91
same,pIC50,"HT-29 cell line; HT-29, read-out: IC50 of 5-FU, SEQ ID NO: 1 at 80 μg/mL",5.31
same,pIC50,"PANC-1 cell line; PANC-1, read-out: IC50 of 5-FU, SEQ ID NO: 1 at 0 μg/mL",4.06
same,pIC50,"PANC-1 cell line; PANC-1, read-out: IC50 of 5-FU, SEQ ID NO: 1 at 5 μg/mL",5.85
same,pIC50,"PANC-1 cell line; PANC-1, read-out: IC50 of 5-FU, SEQ ID NO: 1 at 10 μg/mL",5.90
same,pIC50,"PANC-1 cell line; PANC-1, read-out: IC50 of 5-FU, SEQ ID NO: 1 at 20 μg/mL",6.06
same,pIC50,"PANC-1 cell line; PANC-1, read-out: IC50 of 5-FU, SEQ ID NO: 1 at 40 μg/mL",5.07
same,pIC50,"PANC-1 cell line; PANC-1, read-out: IC50 of 5-FU, SEQ ID NO: 1 at 80 μg/mL",6.14
same,pIC50,"PANC-1 cell line; PANC-1, read-out: IC50 of 5-FU, SEQ ID NO: 1 at […]",3.53
"N.N.O=C([O-])C1(C(=O)[O-])CCC1.[Pt+2] [Carboplatin, reference compound]",pIC50,"MDA-MB-231 cell line; SEQ ID NO: 1 at 0 μg/mL, read-out: IC50 of Carboplatin",3.32
same,pIC50,"MDA-MB-231 cell line; SEQ ID NO: 1 at 5 μg/mL, read-out: IC50 of Carboplatin",5.40
same,pIC50,"MDA-MB-231 cell line; SEQ ID NO: 1 at 10 μg/mL, read-out: IC50 of Carboplatin",5.31
same,pIC50,"MDA-MB-231 cell line; SEQ ID NO: 1 at 20 μg/mL, read-out: IC50 of Carboplatin",5.07
same,pIC50,"MDA-MB-231 cell line; SEQ ID NO: 1 at 40 μg/mL, read-out: IC50 of Carboplatin",5.85
same,pIC50,"MDA-MB-231 cell line; SEQ ID NO: 1 at 80 μg/mL, read-out: IC50 of Carboplatin",5.23
same,pIC50,"MDA-MB-231 cell line; SEQ ID NO: 1 at […], read-out: IC50 of Carboplatin",3.65
"N.N.[Cl][Pt][Cl] [Cisplatin, reference compound]",Conc. of other therapeutic agents showing synergistic effect,T24 cell line; Cisplatin with SEQ ID NO: 1,1 to 500 µM
same,pIC50,T24 cell line; [1],4.41
same,pIC50,T24 cell line; [2],5.42
same,pIC50,T24 cell line; [3],7.01
same,pIC50,T24 cell line; [4],7.46
same,pIC50,T24 cell line; [5],7.08
same,pIC50,"T24 cell line; SEQ ID NO: 1 at 80 μg/mL, read-out: IC50 of Cisplatin",7.87
same,pIC50,T24 cell line; [6],4.64
same,pIC50,KB cell line; [1],6.14
same,pIC50,KB cell line; [2],6.43
same,pIC50,KB cell line; [3],6.57
same,pIC50,KB cell line; [4],6.87
same,pIC50,"KB cell line; SEQ ID NO: 1 at 30 μg/mL, read-out: IC50 of Cisplatin",7.18
same,pIC50,KB cell line; [5],8.15
same,pIC50,"KB cell line; SEQ ID NO: 1 at 90 μg/mL, read-out: IC50 of Cisplatin",8.00
same,pIC50,"PA-1 cell line; SEQ ID NO: 1 at 1 μg/mL, read-out: IC50 of Cisplatin",6.15
same,pIC50,PA-1 cell line; [2],7.03
same,pIC50,PA-1 cell line; [3],8.38
same,pIC50,"PA-1 cell line; SEQ ID NO: 1 at 15 μg/mL, read-out: IC50 of Cisplatin",9.30
same,pIC50,PA-1 cell line; [4],10.00
same,pIC50,PA-1 cell line; [6],6.50
"Nc1ccn([C@@H]2O[C@H](CO)[C@@H](O)C2(F)F)c(=O)n1 [Gemcitabine, reference compound]",Conc. of other therapeutic agents showing synergistic effect,T24 cell line; Gemcitabine with SEQ ID NO: 1,1 to 300 µM
same,pIC50,"T24 cell line; Homo sapiens, T-24, SEQ ID NO: 1 at 0 μg/mL, read-out: IC50 of Gemcitabine",4.81
same,pIC50,"T24 cell line; Homo sapiens, T-24, SEQ ID NO: 1 at 5 μg/mL, read-out: IC50 of Gemcitabine",6.85
same,pIC50,"T24 cell line; Homo sapiens, T-24, SEQ ID NO: 1 at 10 μg/mL, read-out: IC50 of Gemcitabine",9.49
same,pIC50,"T24 cell line; Homo sapiens, T-24, SEQ ID NO: 1 at 20 μg/mL, read-out: IC50 of Gemcitabine",10.70
same,pIC50,"T24 cell line; Homo sapiens, T-24, SEQ ID NO: 1 at […], read-out: IC50 of Gemcitabine",6.10
same,pIC50,"PANC-1 cell line; PANC-1, SEQ ID NO: 1 at 0 μg/mL, read-out: IC50 of Gemcitabine",5.13
same,pIC50,"PANC-1 cell line; PANC-1, SEQ ID NO: 1 at 5 μg/mL, read-out: IC50 of Gemcitabine",4.97
same,pIC50,"PANC-1 cell line; PANC-1, SEQ ID NO: 1 at 10 μg/mL, read-out: IC50 of Gemcitabine",5.52
same,pIC50,"PANC-1 cell line; PANC-1, SEQ ID NO: 1 at 20 μg/mL, read-out: IC50 of Gemcitabine",7.41
same,pIC50,"PANC-1 cell line; PANC-1, SEQ ID NO: 1 at 40 μg/mL, read-out: IC50 of Gemcitabine",7.42
same,pIC50,"PANC-1 cell line; PANC-1, SEQ ID NO: 1 at 80 μg/mL, read-out: IC50 of Gemcitabine",4.97
same,pIC50,"PANC-1 cell line; PANC-1, SEQ ID NO: 1 at […], read-out: IC50 of Gemcitabine",4.80
"CCc1c2c(nc3ccc(OC(=O)N4CCC(N5CCCCC5)CC4)cc13)-c1cc3c(c(=O)n1C2)COC(=O)[C@]3(O)CC [Irinotecan, reference compound]",pIC50,"HT-29 cell line; HT-29, SEQ ID NO: 1 at 0 μg/mL, read-out: IC50 of Irinotecan",4.79
same,pIC50,"HT-29 cell line; HT-29, SEQ ID NO: 1 at 1 μg/mL, read-out: IC50 of Irinotecan",4.31
same,pIC50,"HT-29 cell line; HT-29, SEQ ID NO: 1 at 5 μg/mL, read-out: IC50 of Irinotecan",5.56
same,pIC50,"HT-29 cell line; HT-29, SEQ ID NO: 1 at 10 μg/mL, read-out: IC50 of Irinotecan",5.26
same,pIC50,"HT-29 cell line; HT-29, SEQ ID NO: 1 at 20 μg/mL, read-out: IC50 of Irinotecan",5.87
same,pIC50,"HT-29 cell line; HT-29, SEQ ID NO: 1 at 40 μg/mL, read-out: IC50 of Irinotecan",6.56
same,pIC50,"HT-29 cell line; HT-29, SEQ ID NO: 1 at 80 μg/mL, read-out: IC50 of Irinotecan",6.78
"CC(=O)O[C@H]1C(=O)[C@@]2(C)[C@H]([C@H](OC(=O)c3ccccc3)[C@]3(O)C[C@H](OC(=O)[C@H](O)[C@@H](NC(=O)c4ccccc4)c4ccccc4)C(C)=C1C3(C)C)[C@]1(OC(C)=O)CO[C@@H]1C[C@@H]2O [Paclitaxel, reference compound]",pIC50,"MDA-MB-231 cell line; Homo sapiens, MDA-MB-231, SEQ ID NO: 1 at 0 μg/mL, read-out: IC50 of Paclitaxel",8.79
same,pIC50,"MDA-MB-231 cell line; Homo sapiens, MDA-MB-231, SEQ ID NO: 1 at 5 μg/mL, read-out: IC50 of Paclitaxel",8.03
same,pIC50,"MDA-MB-231 cell line; Homo sapiens, MDA-MB-231, SEQ ID NO: 1 at 10 μg/mL, read-out: IC50 of Paclitaxel",9.41
same,pIC50,"MDA-MB-231 cell line; Homo sapiens, MDA-MB-231, SEQ ID NO: 1 at 20 μg/mL, read-out: IC50 of Paclitaxel",9.91
same,pIC50,"MDA-MB-231 cell line; Homo sapiens, MDA-MB-231, SEQ ID NO: 1 at […], read-out: IC50 of Paclitaxel",8.40
same,pIC50,"PA-1 cell line; Homo sapiens, PA-1, SEQ ID NO: 1 at 0 μg/mL, read-out: IC50 of Paclitaxel",8.39
same,pIC50,"PA-1 cell line; Homo sapiens, PA-1, SEQ ID NO: 1 at 1 μg/mL, read-out: IC50 of Paclitaxel",8.44
same,pIC50,"PA-1 cell line; Homo sapiens, PA-1, SEQ ID NO: 1 at 5 μg/mL, read-out: IC50 of Paclitaxel",9.65
same,pIC50,"PA-1 cell line; Homo sapiens, PA-1, SEQ ID NO: 1 at […], read-out: IC50 of Paclitaxel",8.46
same,Conc. of other therapeutic agents showing synergistic effect,"PA-1 cell line; Paclitaxel with SEQ ID NO: 1, paired with SEQ ID NO: 1 conc.",0.25 to 5 nM
